Experimental data from US8481544B2, “Antibacterial compositions” (Biota Europe Limited, priority 2006, dated 2013).
In brackets after ≈: the same amount, converted by molar mass.

system: Enterococcus faecalis ATCC 29212; experiment: MIC against Enterococcus faecalis ATCC 29212; assay type: cell-based; settings: ATCC29212; Enterococcus faecalis ATCC 29212; read-out: MICs against Enterococcus faecalis, Activity
Description: Institute. Methods for Dilution Antimicrobial Susceptibility Tests for Bacteria That Grow Aerobically; Approved Standard—Seventh Edition. Document M7-A7. CLSI, Wayne, Pa., 2006; Clinical Laboratories and Standards Institute. Methods for Antimicrobial Susceptibility Testing of Anaerobic Bacteria; Approved Standard—Sixth Edition. Document M11-A6. CLSI, Wayne, Pa., 2004).
Compounds of this invention were tested for antimicrobial activity by susceptibility testing in liquid or on solid media. MICs for compounds against each strain were determined by the broth microdilution or agar dilution method according to the guidelines of the Clinical Laboratories and Standards Institute, formerly the National Committee for Clinical Laboratory Standards (Clinical Laboratories and Standards Institute. Methods for Dilution Antimicrobial Susceptibility Tests for Bacteria That Grow Aerobically; Approved Standard—Seventh Edition. Document M7-A7. CLSI, Wayne, Pa., 2006; Clinical Laboratories and Standards Institute. Methods for Antimicrobial Susceptibility Testing of Anaerobic Bacteria; Approved Standard—Sixth Edition. Document M11-A6. CLSI, Wayne, Pa., 2004).

Compound	MIC [µg/mL]
CCNC(=O)Nc1nc2cc(-c3cccnc3)cc(-c3cncn3C)c2s1 [Example 164, 1-Ethyl-3-[7-(3-methyl-3H-imidazol-4-yl)-5-pyridin-3-yl-benzothiazol-2-yl]-urea]	2 to 16 (≈ 5.28 to 42.3 µM)
CCNC(=O)Nc1nc2cc(-c3cnc(C#N)nc3)cc(-c3cccnc3)c2s1 [Example 32, 1-[5-(2-Cyano-pyrimidin-5-yl)-7-pyridin-3-yl-benzothiazol-2-yl]-3-ethyl-urea]	2 to 16 (≈ 4.98 to 39.9 µM)
CCNC(=O)Nc1nc2cc(-c3ccc(NC(=O)CN(C)C)nc3)cc(-c3ccccn3)c2s1 [Example 66, 2-Dimethylamino-N-{5-[2-(3-ethyl-ureido)-7-pyridin-2-yl-benzothiazol-5-yl]-pyridin-2-yl}-acetamide]	0.25 to 1 (≈ 0.526 to 2.1 µM)
CCNC(=O)Nc1nc2cc(-c3cccnc3)cc(-c3ccccc3OC)c2s1 [Example 87, 1-Ethyl-3-[7-(2-methoxy-phenyl)-5-pyridin-3-yl-benzothiazol-2-yl]-urea]	0.25 to 1 (≈ 0.618 to 2.47 µM)
CCNC(=O)Nc1nc2cc(-c3cc(C)n(C)c(=O)c3)cc(-c3cccnc3)c2s1 [Example 50, 1-[5-(1,6-Dimethyl-2-oxo-1,2-dihydro-pyridin-4-yl)-7-pyridin-3-yl-benzothiazol-2-yl]-3-ethyl-urea]	0.25 to 1 (≈ 0.596 to 2.38 µM)
CCNC(=O)Nc1nc2cc(-c3cccnc3)cc(-c3ccc(CN4CCOCC4)cn3)c2s1 [Example 120, 1-Ethyl-3-[7-(5-morpholin-4-ylmethyl-pyridin-2-yl)-5-pyridin-3-yl-benzothiazol-2-yl]-urea]	0.25 to 1 (≈ 0.527 to 2.11 µM)
CCNC(=O)Nc1nc2cc(-c3ccccn3)cc(-c3cnc(N)nc3)c2s1 [Example 74, 1-[7-(2-Amino-pyrimidin-5-yl)-5-pyridin-2-yl-benzothiazol-2-yl]-3-ethyl-urea]	2 to 16 (≈ 5.11 to 40.9 µM)
CCNC(=O)Nc1nc2cc(-c3cccnc3)cc(C(=O)NCC)c2s1 [Example 152, 2-(3-Ethyl-ureido)-5-pyridin-3-yl-benzothiazole-7-carboxylic acid ethylamide]	2 to 16 (≈ 5.41 to 43.3 µM)
CCNC(=O)Nc1nc2cc(-c3cccnc3)cc(-c3ccsc3)c2s1 [Example 77, 1-Ethyl-3-(5-pyridin-3-yl-7-thiophen-3-yl-benzothiazol-2-yl)-urea]	0.25 to 1 (≈ 0.657 to 2.63 µM)
CCNC(=O)Nc1nc2cc(-c3cccnc3)cc(-c3cccc(N4CCOCC4)n3)c2s1 [Example 166, 1-Ethyl-3-[7-(6-morpholin-4-yl-pyridin-2-yl)-5-pyridin-3-yl-benzothiazol-2-yl]-urea]	0.25 to 1 (≈ 0.543 to 2.17 µM)
CCNC(=O)Nc1nc2cc(-c3ccc(NC(=O)CNC(C)(C)C)nc3)cc(-c3ccccn3)c2s1 [Example 55, 2-tert-Butylamino-N-{5-[2-(3-ethyl-ureido)-7-pyridin-2-yl-benzothiazol-5-yl]-pyridin-2-yl}-acetamide]	0.25 to 1 (≈ 0.496 to 1.99 µM)
CCNC(=O)Nc1nc2cc(-c3cnc4c(c3)NC(=O)CO4)cc(-c3ccccn3)c2s1 [Example 54, 1-Ethyl-3-[5-(2-oxo-2,3-dihydro-1H-pyrido[2,3-b][1,4]oxazin-7-yl)-7-pyridin-2-yl-benzothiazol-2-yl]-urea]	0.25 to 1 (≈ 0.56 to 2.24 µM)
CCNC(=O)Nc1nc2cc(-c3cccnc3)cc(-c3ncccc3C(F)(F)F)c2s1 [Example 128, 1-Ethyl-3-[5-pyridin-3-yl-7-(3-trifluoromethyl-pyridin-2-yl)-benzothiazol-2-yl]-urea]	0.25 to 1 (≈ 0.564 to 2.26 µM)
CCNC(=O)Nc1nc2cc(-c3cncc(OC)c3)cc(-c3cccnc3)c2s1 [Example 31, 1-Ethyl-3-[5-(5-methoxy-pyridin-3-yl)-7-pyridin-3-yl-benzothiazol-2-yl]-urea]	0.25 to 1 (≈ 0.617 to 2.47 µM)
CCNC(=O)Nc1nc2cc(-c3cccnc3)cc(-c3ncco3)c2s1 [Example 165, 1-Ethyl-3-(7-oxazol-2-yl-5-pyridin-3-yl-benzothiazol-2-yl)-urea]	0.25 to 1 (≈ 0.684 to 2.74 µM)
CCNC(=O)Nc1nc2cc(-c3cnc(OC)nc3)cc(-c3cccnc3)c2s1 [Example 15, 1-Ethyl-3-[5-(2-methoxy-pyrimidin-5-yl)-7-pyridin-3-yl-benzothiazol-2-yl]-urea]	0.25 to 1 (≈ 0.615 to 2.46 µM)
CCNC(=O)Nc1nc2cc(-c3cccnc3)cc(-c3cccc(OC)c3)c2s1 [Example 86, 1-Ethyl-3-[7-(3-methoxy-phenyl)-5-pyridin-3-yl-benzothiazol-2-yl]-urea]	0.25 to 1 (≈ 0.618 to 2.47 µM)
CCNC(=O)Nc1nc2cc(-c3ccc(O)nc3)cc(-c3cccnc3)c2s1 [Example 16, 1-Ethyl-3-[5-(6-hydroxy-pyridin-3-yl)-7-pyridin-3-yl-benzothiazol-2-yl]-urea]	2 to 16 (≈ 5.11 to 40.9 µM)
CCNC(=O)Nc1nc2cc(Br)cc(-c3cnn(C)c3)c2s1 [Example 5, 1-[5-Bromo-7-(1-methyl-1H-pyrazol-4-yl)-benzothiazol-2-yl]-3-ethyl-urea]	2 to 16 (≈ 5.26 to 42.1 µM)
CCNC(=O)Nc1nc2cc(-c3cccnc3C)cc(-c3ccccn3)c2s1 [Example 52, 1-Ethyl-3-[5-(2-methyl-pyridin-3-yl)-7-pyridin-2-yl-benzothiazol-2-yl]-urea]	0.25 to 1 (≈ 0.642 to 2.57 µM)

Other lines, results leading:

MIC [µg/mL]	Compound
< 0.25	CCNC(=O)Nc1nc2cc(-c3ccn(C)c(=O)c3)cc(-c3ccccn3)c2s1 [Example 51, 1-Ethyl-3-[5-(1-methyl-2-oxo-1,2-dihydro-pyridin-4-yl)-7-pyridin-2-yl-benzothiazol-2-yl]-urea]
0.25 to 1 (≈ 0.603 to 2.41 µM)	CCNC(=O)Nc1nc2cc(-c3cnc4[nH]ccc4c3)cc(-c3cccnc3)c2s1 [Example 49, 1-Ethyl-3-[7-pyridin-3-yl-5-(1H-pyrrolo[2,3-b]pyridin-5-yl)-benzothiazol-2-yl]-urea]
0.25 to 1 (≈ 0.597 to 2.39 µM)	CCNC(=O)Nc1nc2cc(-c3ccc(CNC)nc3)cc(-c3ccccn3)c2s1 [Example 67, 1-Ethyl-3-[5-(6-methylaminomethyl-pyridin-3-yl)-7-pyridin-2-yl-benzothiazol-2-yl]-urea]
< 0.25	CCNC(=O)Nc1nc2cc(-c3ccc(C)nc3)cc(-c3ccccn3)c2s1 [Example 41, 1-Ethyl-3-[5-(6-methyl-pyridin-3-yl)-7-pyridin-2-yl-benzothiazol-2-yl]-urea]
0.25 to 1 (≈ 0.739 to 2.95 µM)	CCNC(=O)Nc1nc2cc(-c3cccnc3)cc(C3CC3)c2s1 [Example 79, 1-(7-Cyclopropyl-5-pyridin-3-yl-benzothiazol-2-yl)-3-ethyl-urea]
< 0.25	CCNC(=O)Nc1nc2cc(-c3ccc(N)nc3)cc(-c3ccccn3)c2s1 [Example 138, 1-[5-(6-Amino-pyridin-3-yl)-7-pyridin-2-yl-benzothiazol-2-yl]-3-ethyl-urea]
0.25 to 1 (≈ 0.686 to 2.74 µM)	CCNC(=O)Nc1nc2cc(-c3ccoc3)cc(-c3ccccn3)c2s1 [Example 37, 1-Ethyl-3-(5-furan-3-yl-7-pyridin-2-yl-benzothiazol-2-yl)-urea]
< 0.25	CCNC(=O)Nc1nc2cc(-c3cncnc3)cc(-c3ccccn3)c2s1 [Example 35, 1-Ethyl-3-(7-pyridin-2-yl-5-pyrimidin-5-yl-benzothiazol-2-yl)-urea]
< 0.25	CCNC(=O)Nc1nc2cc(-c3cncc(OC)c3)cc(-c3ccccn3)c2s1 [Example 179, 1-Ethyl-3-[5-(5-methoxy-pyridin-3-yl)-7-pyridin-2-yl-benzothiazol-2-yl]-urea]
< 0.25	CCNC(=O)Nc1nc2cc(-c3cccnc3)cc(-c3nc(C)ccc3C#N)c2s1 [Example 103, 1-[7-(3-Cyano-6-methyl-pyridin-2-yl)-5-pyridin-3-yl-benzothiazol-2-yl]-3-ethyl-urea]
< 0.25	CCNC(=O)Nc1nc2cc(-c3cccnc3)cc(-c3cccc(N)n3)c2s1 [Example 125, 1-[7-(6-Amino-pyridin-2-yl)-5-pyridin-3-yl-benzothiazol-2-yl]-3-ethyl-urea]
0.25 to 1 (≈ 0.574 to 2.3 µM)	CCNC(=O)Nc1nc2cc(-c3cncc(OC)c3)cc(-c3cncc(OC)c3)c2s1 [Example 143, 1-[5,7-Bis-(5-methoxy-pyridin-3-yl)-benzothiazol-2-yl]-3-ethyl-urea]
0.25 to 1 (≈ 0.578 to 2.31 µM)	CCNC(=O)Nc1nc2cc(-c3ccc(NC(C)=O)nc3)cc(-c3cccnc3)c2s1 [Example 20, N-{5-[2-(3-Ethyl-ureido)-7-pyridin-3-yl-benzothiazol-5-yl]-pyridin-2-yl}-acetamide]
< 0.25	CCNC(=O)Nc1nc2cc(-c3cccnc3)cc(-c3cc(OC)ccn3)c2s1 [Example 112, 1-Ethyl-3-[7-(4-methoxy-pyridin-2-yl)-5-pyridin-3-yl-benzothiazol-2-yl]-urea]
< 0.25	CCNC(=O)Nc1nc2cc(-c3cccnc3)cc(-c3ccnc(N)n3)c2s1 [Example 114, 1-[7-(2-Amino-pyrimidin-4-yl)-5-pyridin-3-yl-benzothiazol-2-yl]-3-ethyl-urea]
< 0.25	CCNC(=O)Nc1nc2cc(-c3cccnc3)cc(-c3cc(CO)ccn3)c2s1 [Example 121, 1-Ethyl-3-[7-(4-hydroxymethyl-pyridin-2-yl)-5-pyridin-3-yl-benzothiazol-2-yl]-urea]
< 0.25	CCNC(=O)Nc1nc2cc(-c3ccc(NC(C)=O)nc3)cc(-c3cnccn3)c2s1 [Example 134, N-{5-[2-(3-Ethyl-ureido)-7-pyrazin-2-yl-benzothiazol-5-yl]-pyridin-2-yl}-acetamide]
< 0.25	CCNC(=O)Nc1nc2cc(-c3cccnc3)cc(-c3ncccc3C#N)c2s1 [Example 95, 1-[7-(3-Cyano-pyridin-2-yl)-5-pyridin-3-yl-benzothiazol-2-yl]-3-ethyl-urea]
< 0.25	CCNC(=O)Nc1nc2cc(-c3ccc(C#N)nc3)cc(-c3cccnc3)c2s1 [Example 27, 1-[5-(6-Cyano-pyridin-3-yl)-7-pyridin-3-yl-benzothiazol-2-yl]-3-ethyl-urea]
< 0.25	CCNC(=O)Nc1nc2cc(-c3cccnc3)cc(-c3ncnc4[nH]ccc34)c2s1 [Example 116, 1-Ethyl-3-[5-pyridin-3-yl-7-(7H-pyrrolo[2,3-d]pyrimidin-4-yl)-benzothiazol-2-yl]-urea]
